What was measured:
cells [1] = type: cell-based
Description: Another synthetic polymer that has been recently evaluated for its ability to mediate gene transfer is polyethyleneimine (PEI) which contains primary, secondary, and tertiary amines (Abdallah, B.; Hassan, A.; Benoist; Goula, D.; Behr, J. P.; Demeneix, B. A. Human Gene Therapy 1996, 7, 1947; Boussif, O.; Lezoualc'h, F.; Zanta, M. A.; Mergny, M. D., Scherman, D.; Demeneix, B.; Behr, J. P. Proc. Natl. Acad. Sci. USA 1995, 92, 7297). The advantage of PEI over polylysine as a mediator for gene transfer is that it contains a built-in mechanism for endosome escape. The overall protonation of PEI at pH=7 is approximately 20% whereas the overall protonation at pH=5 is approximately 45% (Suh, J.; Paik, H. J.; Hwang, B. K. Bioorg. Chem. 1994, 22, 318). […] In fact, PEI is capable of mediating gene transfer equal to the best lipid systems.

cells [2] = details: in vitro; cited from earlier work

Compound | toxicity to cells in vitro (cells [1]) | concentration required to enhance transfection (cells [2])
polyethyleneimine [PEI] | toxic to cells in vitro | –
OCC(O)CO [glycerol] | – | 1-1.5 M

— US6849272B1, “Endosomolytic agents and cell delivery systems” (Massachusetts Institute of Technology, priority 1999, dated 2005)
